# Results reported in patent publication US12201610B2, “Compositions comprising aticaprant” (Janssen Pharmaceuticals, Inc., priority 2022, dated 2025).
# Test system: subjects with MDD
# Assay: MADRS total score, adjunctive aticaprant vs placebo in MDD (Example 6)
# [1] = eITT Analysis Set, High anhedonia, Treatment Week 1
# [2] = eITT Analysis Set, High anhedonia, Treatment Week 3
# [3] = eITT Analysis Set, High anhedonia, Treatment Week 4
# [4] = eITT Analysis Set, High anhedonia, Treatment Week 5
# [5] = eITT Analysis Set, High anhedonia, Treatment Week 6
# [6] = eITT Analysis Set, Low anhedonia, Treatment Week 1
# [7] = eITT Analysis Set, Low anhedonia, Treatment Week 3
# [8] = eITT Analysis Set, Low anhedonia, Treatment Week 4
# [9] = eITT Analysis Set, Low anhedonia, Treatment Week 5
# [10] = eITT Analysis Set, Low anhedonia, Treatment Week 6
# [11] = eITT, Treatment Week 1, 10 mg adjunctive to SSRI/SNRI
# [12] = eITT, Treatment Week 3, 10 mg adjunctive to SSRI/SNRI
# [13] = eITT, Treatment Week 4, 10 mg adjunctive to SSRI/SNRI
# [14] = eITT, Treatment Week 5, 10 mg adjunctive to SSRI/SNRI
# [15] = eITT, Treatment Week 6, 10 mg adjunctive to SSRI/SNRI
smiles,measurement,setting,value
"Cc1cc(C)cc(C2CCCN2Cc2ccc(Oc3ccc(C(N)=O)cc3F)cc2)c1 (stereo not drawn) [aticaprant, 3-fluoro-4-4-2-(3,5-dimethylphenyl)pyrrolidin-1-yl-methylphenoxybenzamide]","Change from Treatment Baseline in MADRS Total Score, Least Squares Mean (Standard Error)","Treatment Week 6, both responders and non-responders during placebo lead-in, 10 mg",−9.6 ± 0.79 score on a scale
same,"MADRS Total Score Least Squares Mean Difference, point estimate","Treatment Week 6, both responders and non-responders during placebo lead-in, 10 mg vs placebo",−3.1 score on a scale
same,MADRS Total Score Effect size,[1],−0.39
same,MADRS Total Score Mean Change from Baseline (SD),[1],−4.6 (5.25)
same,MADRS Total Score Mean Change to Placebo (SD pooled),[1],−1.8 (4.69)
same,MADRS Total Score Effect size,[2],−0.46
same,MADRS Total Score Mean Change from Baseline (SD),[2],−6.7 (6.83)
same,MADRS Total Score Mean Change to Placebo (SD pooled),[2],−3.0 (6.59)
same,MADRS Total Score Effect size,[3],−0.30
same,MADRS Total Score Mean Change from Baseline (SD),[3],−8.5 (7.26)
same,MADRS Total Score Mean Change to Placebo (SD pooled),[3],−2.2 (7.30)
same,MADRS Total Score Effect size,[4],−0.33
same,MADRS Total Score Mean Change from Baseline (SD),[4],−9.7 (8.18)
same,MADRS Total Score Mean Change to Placebo (SD pooled),[4],−2.6 (7.93)
same,MADRS Total Score Effect size,[5],−0.38
same,MADRS Total Score Mean Change from Baseline (SD),[5],−11.5 (8.95)
same,MADRS Total Score Mean Change to Placebo (SD pooled),[5],−3.4 (8.98)
same,MADRS Total Score Effect size,[6],−0.12
same,MADRS Total Score Mean Change from Baseline (SD),[6],−2.3 (5.03)
same,MADRS Total Score Mean Change to Placebo (SD pooled),[6],−0.5 (4.30)
same,MADRS Total Score Effect size,[7],−0.01
same,MADRS Total Score Mean Change from Baseline (SD),[7],−4.9 (5.99)
same,MADRS Total Score Mean Change to Placebo (SD pooled),[7],−0.1 (5.85)
same,MADRS Total Score Effect size,[8],0.01
same,MADRS Total Score Mean Change from Baseline (SD),[8],−6.4 (7.40)
same,MADRS Total Score Mean Change to Placebo (SD pooled),[8],0.0 (6.80)
same,MADRS Total Score Effect size,[9],0.05
same,MADRS Total Score Mean Change from Baseline (SD),[9],−7.2 (6.46)
same,MADRS Total Score Mean Change to Placebo (SD pooled),[9],0.3 (6.65)
same,MADRS Total Score Effect size,[10],−0.11
same,MADRS Total Score Mean Change from Baseline (SD),[10],−9.2 (8.01)
same,MADRS Total Score Mean Change to Placebo (SD pooled),[10],−0.9 (8.13)
same,"MADRS Total Score Change from Baseline LSMean (SE), MMRM",[11],−3.2
same,"MADRS Total Score LSMean Difference (SE) Treatment - Placebo, MMRM",[11],−1.2 (1.24)
same,MADRS Total Score Mean (SD),[11],25.4
same,MADRS Total Score Mean Change from Baseline (SD),[11],−3.3
same,MADRS Total Score Mean Change to Placebo (SD pooled),[11],−1.1 (4.52)
same,MADRS Total Score Mean Change from Baseline (SD),"eITT, Treatment Week 1, 10 mg adjunctive to SSRI/SNRI, listed as Aticaprant",−3.3 (5.21)
same,MADRS Total Score Effect size,"eITT, Treatment Week 1, vs placebo, negative favors aticaprant",−0.24
same,"MADRS Total Score Change from Baseline LSMean (SE), MMRM",[12],−5.6
same,"MADRS Total Score LSMean Difference (SE) Treatment - Placebo, MMRM",[12],−1.5 (1.25)
same,MADRS Total Score Mean (SD),[12],23.1
same,MADRS Total Score Mean Change from Baseline (SD),[12],−5.7
same,MADRS Total Score Mean Change to Placebo (SD pooled),[12],−1.4 (6.18)
same,MADRS Total Score Mean Change from Baseline (SD),"eITT, Treatment Week 3, 10 mg adjunctive to SSRI/SNRI, listed as Aticaprant",−5.7 (6.38)
same,MADRS Total Score Effect size,"eITT, Treatment Week 3, vs placebo, negative favors aticaprant",−0.22
same,"MADRS Total Score Change from Baseline LSMean (SE), MMRM",[13],−7.3
same,"MADRS Total Score LSMean Difference (SE) Treatment - Placebo, MMRM",[13],−1.1 (1.25)
same,MADRS Total Score Mean (SD),[13],21.5
same,MADRS Total Score Mean Change from Baseline (SD),[13],−7.3
same,MADRS Total Score Mean Change to Placebo (SD pooled),[13],−0.9 (7.00)
same,MADRS Total Score Mean Change from Baseline (SD),"eITT, Treatment Week 4, 10 mg adjunctive to SSRI/SNRI, listed as Aticaprant",−7.3 (7.35)
same,MADRS Total Score Effect size,"eITT, Treatment Week 4, vs placebo, negative favors aticaprant",−0.14
same,"MADRS Total Score Change from Baseline LSMean (SE), MMRM",[14],−8.7
same,"MADRS Total Score LSMean Difference (SE) Treatment - Placebo, MMRM",[14],−1.5 (1.25)
same,MADRS Total Score Mean (SD),[14],20.5
same,MADRS Total Score Mean Change from Baseline (SD),[14],−8.4
same,MADRS Total Score Mean Change to Placebo (SD pooled),[14],−1.1 (7.25)
same,MADRS Total Score Mean Change from Baseline (SD),"eITT, Treatment Week 5, 10 mg adjunctive to SSRI/SNRI, listed as Aticaprant",−8.4 (7.36)
same,MADRS Total Score Effect size,"eITT, Treatment Week 5, vs placebo, negative favors aticaprant",−0.14
same,percentage of subjects with MADRS remission (MADRS total score ≤10),"eITT, Treatment Week 6",16.9%
same,percentage of subjects with ≥30% improvement in MADRS total score,"eITT, Treatment Week 6",57.6%
same,percentage of subjects with ≥50% improvement in MADRS total score,"eITT, Treatment Week 6",35.6%
same,"MADRS Total Score Change from Baseline LSMean (SE), MMRM",[15],−10.1
same,MADRS Total Score Mean (SD),[15],18.6
same,MADRS Total Score Mean Change from Baseline (SD),[15],−10.2 (8.44)
same,MADRS Total Score Mean Change to Placebo (SD pooled),[15],−2.0 (8.49)
same,"MADRS total score change, difference between aticaprant and placebo","eITT, Treatment Week 6, high anhedonia level (SHAPS total score ≥38 at treatment baseline)",−3.4
same,MADRS total score observed effect size,"eITT, Treatment Week 6, high anhedonia level (SHAPS ≥38)",0.38
